According to PubChem BioAssay (NCI):
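A five-concentration, 48-hour dose response in 96-well plates underlies each endpoint, interpolated linearly between surrounding concentrations. TGI: total growth inhibition.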

Legend:
Test in all cases: NCI tumour cell line growth inhibition, 48 h
[1] = test system: OVCAR-8 ovarian
[2] = test system: CAKI-1 renal
[3] = test system: A498 renal
[4] = test system: K-562 leukemia
[5] = test system: RPMI-8226 leukemia
[6] = test system: SW-620 colon
[7] = test system: CCRF-CEM leukemia
[8] = test system: OVCAR-5 ovarian
[9] = test system: LOX IMVI melanoma
[10] = test system: UO-31 renal
[11] = test system: NCI-H460 lung
[12] = test system: TK-10 renal
[13] = test system: T-47D breast
[14] = test system: UACC-62 melanoma
[15] = test system: HCT-116 colon
[16] = test system: NCI-H522 lung
[17] = test system: SK-MEL-28 melanoma
[18] = test system: KM12 colon
[19] = test system: HL-60(TB) leukemia
[20] = test system: UACC-257 melanoma
[21] = test system: EKVX NSCLC
[22] = test system: U251 CNS
[23] = test system: ACHN renal
[24] = test system: HCC-2998 colon
[25] = test system: M14 melanoma
[26] = test system: SR leukemia
[27] = test system: A549 NSCLC
[28] = test system: MDA-N
[29] = test system: 786-0 renal
[30] = test system: DU-145 prostate
[31] = test system: SNB-19 CNS
[32] = test system: MOLT-4 leukemia
[33] = test system: HS 578T breast
[34] = test system: OVCAR-3 ovarian
[35] = test system: MDA-MB-231 breast
[36] = test system: NCI/ADR-RES ovarian
[37] = test system: SF-268 CNS
[38] = test system: MCF7 breast
[39] = test system: BT-549 breast
[40] = test system: IGROV1 ovarian
[41] = test system: MDA-MB-435
[42] = test system: NCI-H226 lung
[43] = test system: SF-539 CNS
[44] = test system: SN12C renal
[45] = test system: SK-MEL-5 melanoma
[46] = test system: SK-MEL-2 melanoma
[47] = test system: NCI-H23 lung
[48] = test system: HT29 colon
[49] = test system: PC-3 prostate
[50] = test system: COLO 205 colon
[51] = test system: SF-295 CNS
[52] = test system: HOP-62 NSCLC
[53] = test system: SNB-75 CNS
[54] = test system: HCT-15 colon
[55] = test system: MALME-3M melanoma
[56] = test system: SK-OV-3 ovarian
[57] = test system: RXF 393 renal
[58] = test system: OVCAR-4 ovarian

CCOC(=O)c1ccc(-n2cnc(-c3ccc([N+](=O)[O-])cc3)c2)cc1
TGI [1]: > 100 µM
TGI [2]: > 100 µM
TGI [3]: > 100 µM
TGI [4]: > 100 µM
TGI [5]: > 100 µM
TGI [6]: > 100 µM
TGI [7]: > 100 µM
TGI [8]: > 100 µM
TGI [9]: > 100 µM
TGI [10]: > 100 µM
TGI [11]: > 100 µM
TGI [12]: > 100 µM
TGI [13]: > 100 µM
TGI [14]: > 100 µM
TGI [15]: > 100 µM
TGI [16]: 36 µM
TGI [17]: > 100 µM
TGI [18]: > 100 µM
TGI [19]: > 100 µM
TGI [20]: > 100 µM
TGI [21]: > 100 µM
TGI [22]: > 100 µM
TGI [23]: > 100 µM
TGI [24]: > 100 µM
TGI [25]: > 100 µM
TGI [26]: > 100 µM
TGI [27]: > 100 µM
TGI [28]: > 100 µM
TGI [29]: > 100 µM
TGI [30]: > 100 µM
TGI [31]: > 100 µM
TGI [32]: > 100 µM
TGI [33]: > 100 µM
TGI [34]: > 100 µM
TGI [35]: > 100 µM
TGI [36]: > 100 µM
TGI [37]: > 100 µM
TGI [38]: > 100 µM
TGI [39]: > 100 µM
TGI [40]: > 100 µM
TGI [41]: > 100 µM
TGI [42]: > 100 µM
TGI [43]: > 100 µM
TGI [44]: > 100 µM
TGI [45]: 74.5 µM
TGI [46]: > 100 µM
TGI [47]: > 100 µM
TGI [48]: > 100 µM
TGI [49]: > 100 µM
TGI [50]: > 100 µM
TGI [51]: > 100 µM
TGI [52]: > 100 µM
TGI [53]: > 100 µM
TGI [54]: > 100 µM
TGI [55]: > 100 µM
TGI [56]: > 100 µM

Cc1cc(N(CCC#N)CCC#N)ccc1/C(N=Nc1ccc([N+](=O)[O-])cc1)=N\NC(=O)c1cc(Cl)ccc1O
TGI [1]: 63 µM
TGI [2]: > 100 µM
TGI [3]: 94.5 µM
TGI [4]: > 100 µM
TGI [5]: > 100 µM
TGI [7]: > 100 µM
TGI [8]: > 100 µM
TGI [10]: 56.8 µM
TGI [11]: > 100 µM
TGI [12]: > 100 µM
TGI [13]: 97.9 µM
TGI [14]: 67.6 µM
TGI [15]: 88.1 µM
TGI [16]: 23.9 µM
TGI [18]: > 100 µM
TGI [20]: > 100 µM
TGI [21]: 82.4 µM
TGI [22]: > 100 µM
TGI [23]: > 100 µM
TGI [24]: 46.2 µM
TGI [25]: > 100 µM
TGI [26]: > 100 µM
TGI [27]: > 100 µM
TGI [28]: > 100 µM
TGI [29]: > 100 µM
TGI [30]: > 100 µM
TGI [31]: > 100 µM
TGI [32]: 72.3 µM
TGI [33]: 91.7 µM
TGI [34]: 38.2 µM
TGI [57]: > 100 µM
TGI [35]: > 100 µM
TGI [36]: > 100 µM
TGI [37]: 91.3 µM
TGI [38]: > 100 µM
TGI [39]: > 100 µM
TGI [40]: > 100 µM
TGI [41]: > 100 µM
TGI [42]: 93 µM
TGI [43]: > 100 µM
TGI [44]: > 100 µM
TGI [45]: > 100 µM
TGI [46]: > 100 µM
TGI [47]: 39.1 µM
TGI [48]: > 100 µM
TGI [49]: > 100 µM
TGI [50]: 54.2 µM
TGI [51]: > 100 µM
TGI [58]: > 100 µM
TGI [52]: > 100 µM
TGI [53]: > 100 µM
TGI [54]: > 100 µM
TGI [55]: > 100 µM
TGI [56]: > 100 µM

O=[N+]([O-])c1ncc(N(CCO)CCO)s1
TGI [1]: > 100 µM
TGI [2]: > 100 µM
TGI [3]: > 100 µM
TGI [4]: 57.5 µM
TGI [5]: 44.8 µM
TGI [6]: > 100 µM
TGI [7]: 56.9 µM
TGI [8]: > 100 µM
TGI [9]: 31.9 µM
TGI [10]: > 100 µM
TGI [11]: > 100 µM
TGI [12]: 79.5 µM
TGI [13]: 81.8 µM
TGI [14]: 43.7 µM
TGI [15]: > 100 µM
TGI [16]: 35.6 µM
TGI [17]: 33.2 µM
TGI [18]: > 100 µM
TGI [19]: 40.7 µM
TGI [20]: 71.4 µM
TGI [21]: > 100 µM
TGI [22]: > 100 µM
TGI [23]: > 100 µM
TGI [24]: > 100 µM
TGI [25]: > 100 µM
TGI [26]: > 100 µM
TGI [28]: > 100 µM
TGI [29]: > 100 µM
TGI [30]: > 100 µM
TGI [31]: > 100 µM
TGI [32]: > 100 µM
TGI [33]: > 100 µM
TGI [34]: > 100 µM
TGI [57]: 33.4 µM
TGI [35]: > 100 µM
TGI [37]: > 100 µM
TGI [38]: > 100 µM
TGI [39]: 80.6 µM
TGI [41]: > 100 µM
TGI [42]: > 100 µM
TGI [43]: 30.7 µM
TGI [44]: > 100 µM
TGI [46]: 45.3 µM
TGI [47]: > 100 µM
TGI [48]: > 100 µM
TGI [49]: > 100 µM
TGI [50]: 49.6 µM
TGI [51]: > 100 µM
TGI [58]: > 100 µM
TGI [52]: > 100 µM
TGI [53]: > 100 µM
TGI [54]: > 100 µM
TGI [55]: 36.3 µM
TGI [56]: > 100 µM
